For twelve molecules, Kd and IC50 results are on record in patent publication US9938261B2, “Heterocyclic compounds and methods of use thereof” (AMBIT BIOSCIENCES CORPORATION, priority 2011, dated 2018).

Where a name gives a salt, the structure may show the parent alone. Read-outs that look alike come from different tables or passages of the source. Bounds are passed on as bounds.

As usually defined, the Kd is the equilibrium constant for the complex coming apart. Higher therefore signals weaker binding. Broadly, the IC50 is the concentration that gives 50% inhibition.

For one assay, the target named is T1, FLT3 (Homo sapiens, UniProt P36888).
T1 construct: made in house
T1 sequence (P36888 27-993): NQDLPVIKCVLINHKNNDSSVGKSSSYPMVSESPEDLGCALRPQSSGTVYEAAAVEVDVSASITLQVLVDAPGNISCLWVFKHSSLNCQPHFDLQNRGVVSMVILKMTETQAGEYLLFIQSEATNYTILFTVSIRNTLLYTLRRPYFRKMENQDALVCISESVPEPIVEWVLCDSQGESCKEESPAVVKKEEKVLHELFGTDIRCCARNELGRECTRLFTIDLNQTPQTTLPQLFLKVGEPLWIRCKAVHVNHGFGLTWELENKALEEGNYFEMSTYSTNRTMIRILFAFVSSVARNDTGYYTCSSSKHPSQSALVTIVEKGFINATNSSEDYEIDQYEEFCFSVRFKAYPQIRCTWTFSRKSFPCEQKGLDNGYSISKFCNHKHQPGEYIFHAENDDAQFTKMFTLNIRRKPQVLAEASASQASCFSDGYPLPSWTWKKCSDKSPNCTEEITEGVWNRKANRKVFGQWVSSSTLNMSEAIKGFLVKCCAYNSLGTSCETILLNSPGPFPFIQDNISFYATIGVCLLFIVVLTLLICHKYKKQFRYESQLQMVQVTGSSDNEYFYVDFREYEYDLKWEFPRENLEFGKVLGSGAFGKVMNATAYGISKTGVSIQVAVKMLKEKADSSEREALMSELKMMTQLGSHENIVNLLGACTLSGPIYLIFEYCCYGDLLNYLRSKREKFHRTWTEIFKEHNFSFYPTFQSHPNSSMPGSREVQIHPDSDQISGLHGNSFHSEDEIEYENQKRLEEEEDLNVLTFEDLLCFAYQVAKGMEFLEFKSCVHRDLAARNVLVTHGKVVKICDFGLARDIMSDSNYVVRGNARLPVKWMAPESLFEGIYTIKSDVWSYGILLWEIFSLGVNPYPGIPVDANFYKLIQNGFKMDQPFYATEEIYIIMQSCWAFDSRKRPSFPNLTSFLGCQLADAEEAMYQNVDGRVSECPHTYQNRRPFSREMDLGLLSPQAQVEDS
The assay is described as follows: Competition binding assay, FLT3 Kd. Put shortly: (§1)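 First, biotinylated affinity ligands were loaded onto streptavidin magnetic beads and blocked. Kinase, beads and compound were then equilibrated 1 hour at room temperature, washed, and eluted with non-biotinylated ligand. Eluted kinase was measured by qPCR, with Kd fitted from an eleven-point threefold dilution series.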

The target in another assay is T2, KIT (Homo sapiens, UniProt P10721).
T2 construct: made in house
T2 sequence (P10721 26-976): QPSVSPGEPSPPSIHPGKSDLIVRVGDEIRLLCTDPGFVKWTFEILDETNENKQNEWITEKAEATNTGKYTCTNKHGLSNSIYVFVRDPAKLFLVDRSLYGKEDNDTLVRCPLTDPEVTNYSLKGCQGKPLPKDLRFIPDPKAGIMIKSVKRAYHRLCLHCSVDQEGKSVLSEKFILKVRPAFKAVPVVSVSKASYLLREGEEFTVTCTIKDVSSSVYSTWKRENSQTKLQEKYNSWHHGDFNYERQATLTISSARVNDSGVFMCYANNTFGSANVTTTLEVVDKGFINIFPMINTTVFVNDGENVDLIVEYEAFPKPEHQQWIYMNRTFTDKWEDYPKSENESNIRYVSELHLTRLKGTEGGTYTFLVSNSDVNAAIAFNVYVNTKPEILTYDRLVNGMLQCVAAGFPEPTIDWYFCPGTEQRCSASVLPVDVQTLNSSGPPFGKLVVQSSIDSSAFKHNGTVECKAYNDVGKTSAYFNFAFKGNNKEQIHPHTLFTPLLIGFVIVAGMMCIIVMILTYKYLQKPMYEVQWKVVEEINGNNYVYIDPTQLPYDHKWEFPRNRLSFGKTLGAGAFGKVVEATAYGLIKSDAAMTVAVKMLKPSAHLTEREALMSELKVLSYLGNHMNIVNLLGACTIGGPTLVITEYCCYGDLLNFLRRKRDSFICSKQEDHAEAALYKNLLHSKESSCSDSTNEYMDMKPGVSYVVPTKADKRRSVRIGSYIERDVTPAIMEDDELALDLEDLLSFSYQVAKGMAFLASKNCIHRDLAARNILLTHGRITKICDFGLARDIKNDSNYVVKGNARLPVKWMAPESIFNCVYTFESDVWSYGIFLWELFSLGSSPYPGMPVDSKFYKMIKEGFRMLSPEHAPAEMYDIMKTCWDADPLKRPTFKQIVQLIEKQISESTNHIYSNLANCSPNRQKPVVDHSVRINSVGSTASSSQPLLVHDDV
The assay is described as follows: Competition binding assay, KIT Kd. Put shortly: as §1

The target in the next assay is T3, PDGFRβ (Homo sapiens, UniProt P09619).
T3 construct: made in house
T3 sequence (P09619 33-1106): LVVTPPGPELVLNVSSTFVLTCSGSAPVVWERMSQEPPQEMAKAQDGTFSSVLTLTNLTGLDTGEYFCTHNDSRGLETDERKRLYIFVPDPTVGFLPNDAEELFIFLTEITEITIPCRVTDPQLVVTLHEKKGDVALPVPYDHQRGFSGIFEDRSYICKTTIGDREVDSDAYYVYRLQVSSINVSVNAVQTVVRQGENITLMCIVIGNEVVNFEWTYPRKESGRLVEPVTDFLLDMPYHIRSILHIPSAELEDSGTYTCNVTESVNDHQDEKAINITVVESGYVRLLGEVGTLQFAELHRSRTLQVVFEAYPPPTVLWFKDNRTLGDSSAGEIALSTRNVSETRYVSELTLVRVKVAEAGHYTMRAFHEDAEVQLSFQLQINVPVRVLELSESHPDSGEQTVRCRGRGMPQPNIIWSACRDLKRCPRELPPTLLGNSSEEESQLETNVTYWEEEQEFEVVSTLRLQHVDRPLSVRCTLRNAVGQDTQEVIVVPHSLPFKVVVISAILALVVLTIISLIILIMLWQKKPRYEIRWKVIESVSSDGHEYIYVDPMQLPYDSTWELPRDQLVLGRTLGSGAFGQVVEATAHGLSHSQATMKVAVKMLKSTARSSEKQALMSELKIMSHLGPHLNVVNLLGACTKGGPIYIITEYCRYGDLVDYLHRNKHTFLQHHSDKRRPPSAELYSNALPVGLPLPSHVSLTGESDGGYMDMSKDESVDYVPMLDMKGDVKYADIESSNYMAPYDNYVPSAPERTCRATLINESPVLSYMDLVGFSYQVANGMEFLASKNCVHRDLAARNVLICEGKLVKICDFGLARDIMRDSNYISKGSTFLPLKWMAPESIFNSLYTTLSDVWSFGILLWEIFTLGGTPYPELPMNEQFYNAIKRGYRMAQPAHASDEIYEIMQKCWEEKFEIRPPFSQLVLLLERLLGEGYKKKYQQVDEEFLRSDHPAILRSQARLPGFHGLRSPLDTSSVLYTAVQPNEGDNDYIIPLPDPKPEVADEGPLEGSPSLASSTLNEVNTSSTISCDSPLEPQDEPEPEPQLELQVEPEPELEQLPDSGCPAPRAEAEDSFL
The assay is described as follows: Competition binding assay, PDGFRβ Kd. Put shortly:
as §1

The subject of a further assay is M-NFS-60 cells. The assay is described as follows: M-NFS-60 cell proliferation assay (Alamar Blue). The settings on record: read-out: CSF1R M-NFS-60 CTB:IC50. The format is cell-based, mouse. Put shortly:
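Alamar Blue reduction (3 h; 560/590 nm) measured viability after 72 h, 37 °C treatment with nine half-log compound concentrations at 0.5% DMSO. Cells: M-CSF-dependent (20 ng/mL) murine M-NFS-60 in RPMI plus 10% FBS. IC50s, averaged from duplicates, reflect half-maximal inhibition of proliferation relative to control.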
In general terms: Resazurin is reduced to fluorescent resorufin, in cell work by metabolically active cells.

In assay [1] the target is T4, CSF1R (Homo sapiens, UniProt P07333). The assay is described as follows: Competition binding assay, CSF1R Kd. Set-up: made in house. In short, it runs like this: as §1
T4 sequence (P07333 20-972): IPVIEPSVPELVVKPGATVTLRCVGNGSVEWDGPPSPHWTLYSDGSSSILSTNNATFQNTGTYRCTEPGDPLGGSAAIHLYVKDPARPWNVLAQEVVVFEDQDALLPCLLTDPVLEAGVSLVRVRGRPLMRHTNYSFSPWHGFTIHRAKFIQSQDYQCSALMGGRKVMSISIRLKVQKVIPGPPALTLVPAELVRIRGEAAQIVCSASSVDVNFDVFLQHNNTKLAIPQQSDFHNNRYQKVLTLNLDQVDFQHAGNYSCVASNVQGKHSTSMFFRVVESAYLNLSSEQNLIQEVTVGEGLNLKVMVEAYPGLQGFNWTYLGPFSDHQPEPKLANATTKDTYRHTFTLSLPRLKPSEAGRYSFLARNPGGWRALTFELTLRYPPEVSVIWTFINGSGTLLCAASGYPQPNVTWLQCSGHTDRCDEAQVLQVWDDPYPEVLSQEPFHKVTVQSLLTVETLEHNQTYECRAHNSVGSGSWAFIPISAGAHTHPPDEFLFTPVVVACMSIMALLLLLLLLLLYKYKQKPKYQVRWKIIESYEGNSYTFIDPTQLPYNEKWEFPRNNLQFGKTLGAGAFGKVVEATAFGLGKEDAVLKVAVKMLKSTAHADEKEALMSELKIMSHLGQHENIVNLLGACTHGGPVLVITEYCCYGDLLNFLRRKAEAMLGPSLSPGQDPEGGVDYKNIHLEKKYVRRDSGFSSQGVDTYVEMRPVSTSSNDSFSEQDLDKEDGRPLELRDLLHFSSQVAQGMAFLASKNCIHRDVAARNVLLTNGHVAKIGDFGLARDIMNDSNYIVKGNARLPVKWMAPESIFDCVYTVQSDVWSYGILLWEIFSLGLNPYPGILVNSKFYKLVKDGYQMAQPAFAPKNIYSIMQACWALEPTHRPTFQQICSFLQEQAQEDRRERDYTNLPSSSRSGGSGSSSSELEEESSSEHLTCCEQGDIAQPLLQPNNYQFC
For assay [2], the target named is T4, CSF1R. The assay is described as follows: HEK293 CSF1R phosphorylation MSD assay. The format is cell-based. The arrangement: expressed in transfected cells; host or cells: HEK293. The conditions noted are these: read-out: HEK293 pCSF1R M-CSF MSD:IC50. In short, it runs like this: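 Ligand-induced CSF1R autophosphorylation was measured by MSD sandwich assay: CSF1R-FKBP from lysates captured via FK506, anti-phosphotyrosine readout. Cells were exposed to compound for 2 h (9-point, half-log, 0.5% DMSO) before 5 min 50 ng/mL M-CSF. Reported IC50 is the mean of duplicate-plate IC50s relative to DMSO control.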

[3] abbreviates: Mus musculus, 72 hours incubation, M-CSF 20 ng/mL.
[4] abbreviates: 2 h compound, human M-CSF 50 ng/mL for 5 min.
Setting [5] is: Mus musculus, M-NFS-60 cell proliferation.
[6] abbreviates: HEK293 cells, M-CSF stimulated CSF1R phosphorylation, MSD.

Take `NCc1cnc2c(c1)ncn2Cc1ccc2nc(N[C@@H]3CCCC[C@H]3O)sc2c1` [Example 91, (1R,2R)-2-((6-((6-(aminomethyl)-3H-imidazo[4,5-b]pyridin-3-yl)methyl)benzo[d]thiazol-2-yl)amino)cyclohexanol acetate]: the Kd on FLT3 is not above 200 nM; at KIT, 100 to 500 nM; on PDGFRβ it was 50 to 500 nM; on CSF1R [1] it was more than 50 nM. The IC50 with M-NFS-60 cells (setting [3]) is 50 to 400 nM; on CSF1R [2] (setting [4]) it was more than 500 nM.

Consider `CN(C)C(=O)c1cnc2c(c1)ncn2Cc1ccc2nc(N[C@@H]3CCCC[C@H]3O)sc2c1` [Example 92, 3-((2-(((1R,2R)-2-hydroxycyclohexyl)amino)benzo[d]thiazol-6-yl)methyl)-N,N-dimethyl-3H-imidazo[4,5-b]pyridine-6-carboxamide], for which the Kd is 1000 to 5000 nM on FLT3, not above 100 nM at KIT, not above 50 nM on PDGFRβ and 5 to 20 nM on CSF1R [1]. The IC50 in the assay on M-NFS-60 cells (setting [3]) lay in the range of 50 to 400 nM; on CSF1R [2] (setting [4]), 50 to 200 nM.

On to `O[C@@H]1CCCC[C@H]1Nc1nc2ccc(Cn3cnc4cc(-c5nn[nH]n5)cnc43)cc2s1` [Example 93, (1R,2R)-2-((6-((6-(2H-tetrazol-5-yl)-3H-imidazo[4,5-b]pyridin-3-yl)methyl)benzo[d]thiazol-2-yl)amino)cyclohexanol], for which the Kd on FLT3 was 200 to 1000 nM; on KIT, not above 100 nM; at PDGFRβ, not above 50 nM; at CSF1R [1], 5 to 20 nM. Also, the IC50 in the assay on M-NFS-60 cells (setting [3]) was more than 1500 nM; on CSF1R [2] (setting [4]), more than 500 nM.

With `Cn1nnc(-c2cnc3c(c2)ncn3Cc2ccc3nc(N[C@@H]4CCCC[C@H]4O)sc3c2)n1` [Example 94, (1R,2R)-2-((6-((6-(2-methyl-2H-tetrazol-5-yl)-3H-imidazo[4,5-b]pyridin-3-yl)methyl)benzo[d]thiazol-2-yl)amino)cyclohexanol], the Kd on FLT3 lay within 200 to 1000 nM; at KIT it was 100 to 500 nM; on PDGFRβ, 50 to 500 nM; at CSF1R [1], 5 to 20 nM. Besides, the IC50 in the assay on M-NFS-60 cells (setting [3]) and on CSF1R [2] (setting [4]) was not above 50 nM in each case.

`O[C@@H]1Cc2ccccc2[C@H]1Nc1nc2ccc(Cn3cnc4cncnc43)cc2s1` [Example 95, (1R,2R)-1-((6-((9H-purin-9-yl)methyl)benzo[d]thiazol-2-yl)amino)-2,3-dihydro-1H-inden-2-ol]: the Kd at FLT3 was more than 5000 nM; on KIT, 500 to 2000 nM; on PDGFRβ it was not above 50 nM; at CSF1R [1] it was not above 5 nM. Also, the figures for the IC50 in the assay on M-NFS-60 cells (setting [3]) and at CSF1R [2] (setting [4]) were 50 to 400 nM and 50 to 200 nM, respectively.

Consider `Cn1cc(-c2nccn(Cc3ccc4nc(N[C@@H]5CCCC[C@H]5O)sc4c3)c2=O)cn1` [Example 103, 1-((2-(((1R,2R)-2-hydroxycyclohexyl)amino)benzo[d]thiazol-6-yl)methyl)-3-(1-methyl-1H-pyrazol-4-yl)pyrazin-2(1H)-one], for which the Kd on FLT3 was more than 5000 nM; at KIT, more than 2000 nM; at PDGFRβ, 50 to 500 nM; on CSF1R [1], 5 to 20 nM. The figures for the IC50 with M-NFS-60 cells (setting [3]) and on CSF1R [2] (setting [4]) were 50 to 400 nM and 50 to 200 nM, respectively.

`CN(C)CC(=O)c1cnc2c(c1)ncn2Cc1ccc2nc(N[C@@H]3CCCC[C@H]3O)sc2c1` [Example 116, 2-(dimethylamino)-1-(3-((2-(((1R,2R)-2-hydroxycyclohexyl)amino)benzo[d]thiazol-6-yl)methyl)-3H-imidazo[4,5-b]pyridine-6-yl)ethanone acetate salt]: the Kd lay within 200 to 1000 nM at FLT3 (competition binding), 100 to 500 nM at KIT (competition binding), 50 to 500 nM at PDGFRβ (competition binding) and 5 to 20 nM on CSF1R [1] (competition binding). Further, the IC50 in the assay with M-NFS-60 cells (setting [5]) is more than 1500 nM; on CSF1R [2] (setting [6]), 50 to 200 nM.

As for `OCCOc1ccn2c(Cc3ccc4nc(N[C@@H]5CCCC[C@H]5O)sc4c3)cnc2c1` [Example 135, (1R,2R)-2-((6-((7-(2-hydroxyethoxy)imidazo[1,2-a]pyridin-3-yl)methyl)benzo[d]thiazol-2-yl)amino)cyclohexanol], the Kd on FLT3 (competition binding) was more than 5000 nM; at KIT (competition binding), 500 to 2000 nM; on PDGFRβ (competition binding), 500 to 2000 nM; on CSF1R [1] (competition binding), 5 to 20 nM. Besides, the IC50 in the assay with M-NFS-60 cells (setting [5]) is 50 to 400 nM; at CSF1R [2] (setting [6]) it was 50 to 200 nM.

Consider `O[C@@H]1CCCC[C@H]1Nc1nc2ccc(Cn3cnc4cc(C5=CCOCC5)ccc43)cc2s1` [Example 174, (1R,2R)-2-((6-((5-(3,6-dihydro-2H-pyran-4-yl)-1H-benzo[d]imidazol-1-yl)methyl)benzo[d]thiazol-2-yl)amino)cyclohexanol], for which the Kd on FLT3 (competition binding) was not above 200 nM; at KIT (competition binding), not above 100 nM; at PDGFRβ (competition binding), not above 50 nM; at CSF1R [1] (competition binding) it was not above 5 nM. Further, the IC50 with M-NFS-60 cells (setting [5]) and at CSF1R [2] (setting [6]) was not above 50 nM in each case.

On to `COc1ccccc1Nc1nc2ccc(Cn3cnc4cc(F)cnc43)cc2s1` [Example 197, 6-((6-fluoro-3H-imidazo[4,5-b]pyridin-3-yl)methyl)-N-(2-methoxyphenyl)benzo[d]thiazol-2-amine], for which the Kd at FLT3 (competition binding) is more than 5000 nM; at KIT (competition binding), 100 to 500 nM; on PDGFRβ (competition binding), 50 to 500 nM; on CSF1R [1] (competition binding), 5 to 20 nM. The figures for the IC50 in the assay on M-NFS-60 cells (setting [5]) and at CSF1R [2] (setting [6]) were 400 to 1500 nM and more than 500 nM, respectively.

For `O[C@@H]1CCCC[C@H]1Nc1nc2ccc(Cn3cnc4cc(C5=CCNCC5)ccc43)cc2s1` [Example 225, (1R,2R)-2-((6-((5-(1,2,3,6-tetrahydropyridin-4-yl)-1H-benzo[d]imidazol-1-yl)methyl)benzo[d]thiazol-2-yl)amino)cyclohexanol], the Kd at FLT3 (competition binding) is 200 to 1000 nM; at KIT (competition binding), not above 100 nM; at PDGFRβ (competition binding), not above 50 nM; at CSF1R [1] (competition binding), not above 5 nM. Besides, the IC50 in the assay on M-NFS-60 cells (setting [5]) was in the range of 400 to 1500 nM; at CSF1R [2] (setting [6]), 50 to 200 nM.

“(1R,2R)-1-((6-((4-(1-methyl-1H-pyrazol-4-yl)-1H-imidazol-1-yl)methyl)benzo[d]thiazol-2-yl)amino)-2,3-dihydro-1H-inden-2-ol or (1R,2R)-1-((6-((5-(1-methyl-1H-pyrazol-4-yl)-1H-imidazol-1-yl)methyl)benzo[d]thiazol-2-yl)amino)-2,3-dihydro-1H-inden-2-ol [Example 32]”: the Kd on FLT3 is 200 to 1000 nM; on KIT it was more than 2000 nM; at PDGFRβ it was more than 2000 nM; on CSF1R [1], more than 50 nM. The IC50 was more than 1500 nM in the assay with M-NFS-60 cells (72 hours incubation, M-CSF 20 ng/mL) and more than 500 nM on CSF1R [2] (setting [4]).
